Values quoted from earlier work in patent US20260027218A1, “STAR-SHAPED GRAFT COPOLYMERS” (POLYPEPTIDE THERAPEUTIC SOLUTIONS, S.L., priority 2022, published 2026).

Compound: CCN(CC)c1ccc2nc3c4ccccc4c(=O)cc-3oc2c1 [Nile Red]
- log P: 2.98
